In patent publication US20250228835A1, “PYRIDINYLOXYPYRIDINES AND RELATED COMPOUNDS AND THEIR USE IN TREATING MEDICAL CONDITIONS” (Rectify Pharmaceuticals, Inc., priority 2024, published 2025) one finds EC50 data, which are given here for 40 compounds.

Holding throughout (type): cell-based
For one assay, the target named is T1, ABCB4 WT (Homo sapiens, UniProt P21439).
T1 construct: expressed in transfected cells
Nature of the assay: ABCB4 WT assay: HiBit protein expression. The note with it: HEK-293 cells stably expressing HiBit-tagged ABCB4 WT; 24 h treatment; top concentration 30 μM; read-out: ABCB4 WT EC50, Emax. The method, boiled down:
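HEK-293 cells stably expressing HiBit-tagged human ABCB4 WT, treated 24 h at 37 °C with 11-dose 3-fold dilutions, top final 30 μM in 0.3% DMSO. HiBit lytic reagent luminescence read after 1 h at 25 °C; Emax and EC50 derived.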

The target in the next assay is T2, ABCC6 WT (Homo sapiens, UniProt O95255).
T2 construct: expressed in transfected cells; host or cells: HEK-293 (transient, Lipofectamine 2000)
T2 sequence (O95255 whole entry): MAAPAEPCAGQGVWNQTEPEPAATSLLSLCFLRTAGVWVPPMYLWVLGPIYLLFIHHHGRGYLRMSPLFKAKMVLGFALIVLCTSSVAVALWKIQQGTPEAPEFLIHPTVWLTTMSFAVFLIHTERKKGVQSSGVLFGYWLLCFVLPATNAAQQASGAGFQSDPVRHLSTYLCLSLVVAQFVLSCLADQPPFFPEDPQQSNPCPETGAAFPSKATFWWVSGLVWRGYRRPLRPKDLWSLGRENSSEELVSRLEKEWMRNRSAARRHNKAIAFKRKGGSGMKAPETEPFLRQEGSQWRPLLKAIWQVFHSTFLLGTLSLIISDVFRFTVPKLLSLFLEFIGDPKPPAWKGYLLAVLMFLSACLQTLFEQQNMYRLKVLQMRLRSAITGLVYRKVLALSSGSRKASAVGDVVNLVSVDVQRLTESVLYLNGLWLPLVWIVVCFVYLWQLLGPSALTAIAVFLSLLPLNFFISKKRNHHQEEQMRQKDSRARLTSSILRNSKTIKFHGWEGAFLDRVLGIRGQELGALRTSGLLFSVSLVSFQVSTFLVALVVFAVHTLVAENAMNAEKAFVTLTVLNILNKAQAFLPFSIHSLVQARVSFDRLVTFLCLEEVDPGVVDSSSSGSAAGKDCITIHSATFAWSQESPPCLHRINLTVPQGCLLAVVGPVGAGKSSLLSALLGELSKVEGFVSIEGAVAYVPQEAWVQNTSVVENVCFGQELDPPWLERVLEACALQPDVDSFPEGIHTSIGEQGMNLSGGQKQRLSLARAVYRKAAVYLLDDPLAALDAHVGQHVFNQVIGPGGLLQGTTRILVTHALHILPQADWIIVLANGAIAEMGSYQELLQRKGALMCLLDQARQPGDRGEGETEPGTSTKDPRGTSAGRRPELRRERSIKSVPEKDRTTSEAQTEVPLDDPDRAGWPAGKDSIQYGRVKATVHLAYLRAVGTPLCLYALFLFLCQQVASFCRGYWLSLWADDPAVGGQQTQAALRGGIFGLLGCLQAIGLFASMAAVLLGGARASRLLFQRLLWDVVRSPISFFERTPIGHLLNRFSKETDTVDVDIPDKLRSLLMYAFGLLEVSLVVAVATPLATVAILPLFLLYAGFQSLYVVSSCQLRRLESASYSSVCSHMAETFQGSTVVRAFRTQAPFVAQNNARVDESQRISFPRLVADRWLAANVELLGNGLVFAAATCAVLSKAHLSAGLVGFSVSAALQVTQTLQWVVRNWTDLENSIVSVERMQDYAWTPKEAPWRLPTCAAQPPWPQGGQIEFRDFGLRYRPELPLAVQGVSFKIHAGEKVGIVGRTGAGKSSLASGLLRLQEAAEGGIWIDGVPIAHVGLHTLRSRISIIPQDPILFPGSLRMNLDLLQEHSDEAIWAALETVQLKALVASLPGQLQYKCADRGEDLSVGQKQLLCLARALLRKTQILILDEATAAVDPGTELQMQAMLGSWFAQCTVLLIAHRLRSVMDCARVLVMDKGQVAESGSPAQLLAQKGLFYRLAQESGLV
The assay can be described thus: ABCC6 WT assay: HiBit protein expression. The note with it: HEK-293 cells transiently expressing HiBit-tagged ABCC6 WT; 24 h treatment; top concentration 20 μM; read-out: ABCC6 WT EC50, Emax. The method, boiled down:
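HEK-293 cells transiently transfected with HiBit-tagged human ABCC6 WT cDNA, seeded 24 h post-transfection, treated 24 h at 37° C with ten 2-fold doses (top 20 μM final, 0.15% DMSO). HiBit lytic luminescence reports protein expression; Emax and EC50 derived.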

A further assay has as its target T3, ABCA4 P1380L (Homo sapiens, UniProt P78363, P1380L).
T3 construct: expressed in transfected cells
The assay can be described thus: A4 correction dose-response assay: ABCA4 P1380L HiBit protein expression. The note with it: HEK-293 cells stably expressing HiBit-tagged ABCA4 P1380L; 24 h treatment; top concentration 30 μM; read-out: ABCA4 P1380L EC50, Emax. The method, boiled down:
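Cells transfected with HiBit-tagged human ABCA4 P1380L cDNA were treated for 24 h at 37°C with an eleven-point dilution series (top final 30 μM, 0.3% DMSO).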

The structures appear in SMILES notation.

T1 sequence (P21439 whole entry): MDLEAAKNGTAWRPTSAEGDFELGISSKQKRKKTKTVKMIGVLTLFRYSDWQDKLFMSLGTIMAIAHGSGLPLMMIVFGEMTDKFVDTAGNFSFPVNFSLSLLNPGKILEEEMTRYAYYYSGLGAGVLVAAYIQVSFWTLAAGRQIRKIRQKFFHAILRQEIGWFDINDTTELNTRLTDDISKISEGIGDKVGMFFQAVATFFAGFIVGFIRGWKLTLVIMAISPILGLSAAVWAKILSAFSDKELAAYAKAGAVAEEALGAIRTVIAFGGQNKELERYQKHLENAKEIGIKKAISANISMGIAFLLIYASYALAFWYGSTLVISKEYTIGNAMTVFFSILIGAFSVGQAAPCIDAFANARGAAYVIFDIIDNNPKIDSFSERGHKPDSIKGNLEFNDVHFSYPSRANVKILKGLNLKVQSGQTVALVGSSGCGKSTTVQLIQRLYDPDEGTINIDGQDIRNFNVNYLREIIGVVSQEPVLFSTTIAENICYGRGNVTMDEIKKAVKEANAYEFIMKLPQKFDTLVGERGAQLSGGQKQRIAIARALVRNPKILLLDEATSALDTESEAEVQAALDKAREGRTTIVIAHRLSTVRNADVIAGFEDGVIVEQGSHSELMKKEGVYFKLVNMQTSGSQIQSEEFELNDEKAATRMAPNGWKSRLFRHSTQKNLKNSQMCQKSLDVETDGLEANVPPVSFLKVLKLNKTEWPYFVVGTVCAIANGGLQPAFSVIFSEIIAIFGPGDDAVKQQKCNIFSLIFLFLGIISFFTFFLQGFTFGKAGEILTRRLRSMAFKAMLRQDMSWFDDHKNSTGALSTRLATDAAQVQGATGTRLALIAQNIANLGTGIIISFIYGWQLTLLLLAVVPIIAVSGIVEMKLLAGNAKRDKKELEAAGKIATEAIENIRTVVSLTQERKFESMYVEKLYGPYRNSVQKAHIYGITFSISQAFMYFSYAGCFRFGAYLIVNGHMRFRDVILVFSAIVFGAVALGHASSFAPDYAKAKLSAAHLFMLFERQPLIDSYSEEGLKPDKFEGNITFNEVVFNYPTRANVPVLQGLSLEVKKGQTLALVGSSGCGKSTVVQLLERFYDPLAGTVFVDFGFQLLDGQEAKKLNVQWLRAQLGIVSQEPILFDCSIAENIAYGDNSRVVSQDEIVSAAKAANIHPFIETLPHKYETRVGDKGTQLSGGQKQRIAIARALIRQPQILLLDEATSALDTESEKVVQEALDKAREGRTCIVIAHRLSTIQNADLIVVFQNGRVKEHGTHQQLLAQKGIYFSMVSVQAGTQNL
T3 sequence (P78363 whole entry P1380L): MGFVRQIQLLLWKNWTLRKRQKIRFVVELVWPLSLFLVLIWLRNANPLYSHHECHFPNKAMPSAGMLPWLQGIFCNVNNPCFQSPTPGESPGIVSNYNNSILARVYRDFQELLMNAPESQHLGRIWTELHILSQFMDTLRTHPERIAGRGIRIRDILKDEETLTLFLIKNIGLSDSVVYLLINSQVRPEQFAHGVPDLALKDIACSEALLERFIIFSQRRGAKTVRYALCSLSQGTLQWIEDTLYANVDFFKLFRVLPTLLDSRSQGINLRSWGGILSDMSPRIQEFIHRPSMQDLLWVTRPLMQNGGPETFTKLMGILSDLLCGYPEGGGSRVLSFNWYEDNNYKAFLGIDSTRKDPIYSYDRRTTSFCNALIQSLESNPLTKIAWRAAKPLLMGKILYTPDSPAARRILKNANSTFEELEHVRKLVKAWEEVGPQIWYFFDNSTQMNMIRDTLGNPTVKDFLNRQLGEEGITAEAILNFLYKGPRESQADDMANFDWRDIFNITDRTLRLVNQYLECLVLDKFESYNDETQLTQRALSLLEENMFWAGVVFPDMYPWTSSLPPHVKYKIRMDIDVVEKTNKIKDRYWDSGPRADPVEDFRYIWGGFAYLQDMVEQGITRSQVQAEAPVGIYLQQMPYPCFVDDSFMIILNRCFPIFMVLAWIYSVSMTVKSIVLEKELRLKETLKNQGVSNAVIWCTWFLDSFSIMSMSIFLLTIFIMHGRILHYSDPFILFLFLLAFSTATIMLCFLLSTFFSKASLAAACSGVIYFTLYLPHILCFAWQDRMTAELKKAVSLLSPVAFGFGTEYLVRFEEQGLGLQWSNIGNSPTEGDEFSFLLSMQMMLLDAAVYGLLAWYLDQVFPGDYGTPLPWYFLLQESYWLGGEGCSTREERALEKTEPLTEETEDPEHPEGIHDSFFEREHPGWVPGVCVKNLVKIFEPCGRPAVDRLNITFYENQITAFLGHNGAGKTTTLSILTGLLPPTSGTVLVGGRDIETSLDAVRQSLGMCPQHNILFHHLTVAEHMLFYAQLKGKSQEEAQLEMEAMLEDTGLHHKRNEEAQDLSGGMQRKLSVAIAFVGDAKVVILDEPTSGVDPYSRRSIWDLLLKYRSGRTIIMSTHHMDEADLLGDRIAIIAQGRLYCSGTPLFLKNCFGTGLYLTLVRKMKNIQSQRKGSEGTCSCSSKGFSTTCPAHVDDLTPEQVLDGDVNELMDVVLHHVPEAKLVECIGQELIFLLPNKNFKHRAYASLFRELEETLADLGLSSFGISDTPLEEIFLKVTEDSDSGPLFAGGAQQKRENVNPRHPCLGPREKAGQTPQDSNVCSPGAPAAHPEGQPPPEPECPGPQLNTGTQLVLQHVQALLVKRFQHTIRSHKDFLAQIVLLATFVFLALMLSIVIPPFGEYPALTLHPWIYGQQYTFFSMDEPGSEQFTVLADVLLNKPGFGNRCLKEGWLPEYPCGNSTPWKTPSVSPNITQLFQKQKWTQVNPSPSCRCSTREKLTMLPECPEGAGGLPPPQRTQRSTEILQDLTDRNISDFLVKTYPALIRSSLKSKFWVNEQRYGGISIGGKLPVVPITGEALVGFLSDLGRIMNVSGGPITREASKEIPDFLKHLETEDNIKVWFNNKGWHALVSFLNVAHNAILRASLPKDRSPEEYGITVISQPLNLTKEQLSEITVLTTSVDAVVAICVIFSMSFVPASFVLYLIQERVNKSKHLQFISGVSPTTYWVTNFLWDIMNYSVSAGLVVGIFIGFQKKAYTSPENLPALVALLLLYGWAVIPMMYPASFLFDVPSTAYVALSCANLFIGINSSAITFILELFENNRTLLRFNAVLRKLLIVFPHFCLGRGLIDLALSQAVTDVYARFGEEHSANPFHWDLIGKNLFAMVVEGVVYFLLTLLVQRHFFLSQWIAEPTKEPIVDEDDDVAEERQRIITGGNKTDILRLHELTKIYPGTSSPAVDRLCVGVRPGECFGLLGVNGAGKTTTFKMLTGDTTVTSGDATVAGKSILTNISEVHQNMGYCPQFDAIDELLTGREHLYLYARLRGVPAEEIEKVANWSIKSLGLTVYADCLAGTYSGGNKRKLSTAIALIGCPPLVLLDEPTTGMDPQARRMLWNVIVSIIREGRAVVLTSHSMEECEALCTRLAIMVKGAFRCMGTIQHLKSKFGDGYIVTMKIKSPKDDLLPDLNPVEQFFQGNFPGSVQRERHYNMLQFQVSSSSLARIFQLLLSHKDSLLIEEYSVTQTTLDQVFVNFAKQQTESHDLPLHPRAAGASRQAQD

For the compound `Cc1nc(C)c(Oc2nc(-c3cncc(C(F)F)c3)ccc2NS(C)(=O)=O)c(C)n1` [Compound I-191], the EC50 at ABCB4 WT is less than 1000 nM; at ABCC6 WT it was 1000 to 10000 nM; at ABCA4 P1380L, less than 1000 nM.
On to `Cc1nc(C)c(Oc2nc(-c3cncc(C(F)(F)F)c3)ccc2NS(C)(=O)=O)c(C)n1` [Compound I-192], for which the EC50 was less than 25000 nM at ABCB4 WT, less than 1000 nM at ABCC6 WT and 1000 to 10000 nM on ABCA4 P1380L.
Taken in the same sequence, the figures for `Cc1nc(C)c(Oc2nc(-c3cncc(C4CC4)c3)ccc2NS(C)(=O)=O)c(C)n1` [Compound I-193] were less than 1000 nM, less than 1000 nM and less than 1000 nM.
The like results for `Cc1cc(C)c(Oc2nc(-c3cncc(C4CN(C)C4)c3)ccc2NS(C)(=O)=O)c(C)n1` [Compound I-194] were, in that order, not below 25000 nM, not below 25000 nM and 10000 to 25000 nM.
Taken in the same sequence, the figures for `Cc1cc(C)c(Oc2nc(-c3cncc(N4CC(F)(F)C4)c3)ccc2NS(C)(=O)=O)c(C)n1` [Compound I-195] were less than 1000 nM, less than 1000 nM and more than 25000 nM.
Regarding `COC1CN(c2cncc(-c3ccc(NS(C)(=O)=O)c(Oc4c(C)cc(C)nc4C)n3)c2)C1` [Compound I-196], the EC50 on ABCB4 WT was not below 25000 nM; at ABCC6 WT, less than 1000 nM; on ABCA4 P1380L it was more than 25000 nM.
Taken in the same sequence, the figures for `Cc1cc(C(F)F)nc(C)c1Oc1nc(-c2cncc(C3COC3)c2)ccc1NS(C)(=O)=O` [Compound I-197] were less than 1000 nM, less than 1000 nM and 1000 to 10000 nM.
In the case of `Cc1cc(C(F)(F)F)nc(C)c1Oc1nc(-c2cncc(C3COC3)c2)ccc1NS(C)(=O)=O` [Compound I-198], the figures for the concentration for a half-maximal effect (EC50) at ABCB4 WT, on ABCC6 WT and at ABCA4 P1380L were less than 1000 nM, not below 25000 nM and more than 25000 nM, respectively.
The like results for `Cc1cc(C(F)F)nc(C)c1Oc1nc(-c2cncc(C#N)c2)ccc1NS(=O)(=O)C1CC1` [Compound I-199] were, in that order, less than 1000 nM, 1000 to 10000 nM and less than 1000 nM.
`Cc1nc(C(F)(F)F)nc(C)c1Oc1nc(-c2cncc(C#N)c2)ccc1NS(C)(=O)=O` [Compound I-200]: the EC50 on ABCB4 WT, at ABCC6 WT and on ABCA4 P1380L was less than 1000 nM each time.
Turning to `Cc1cc(C)c(Oc2nc(-c3cncc(N4CCOCC4)c3)ccc2NS(C)(=O)=O)c(C)n1` [Compound I-201], the EC50 was not below 25000 nM on ABCB4 WT, 1000 to 10000 nM at ABCC6 WT and 1000 to 10000 nM at ABCA4 P1380L.
As for `Cc1cc(C(F)F)nc(C)c1Oc1nc(-c2cncc(Cl)c2)ccc1NS(C)(=O)=O` [Compound I-202], the figures for the EC50 on ABCB4 WT, at ABCC6 WT and on ABCA4 P1380L were less than 25000 nM, less than 1000 nM and less than 1000 nM, respectively.
On to `Cc1cc(C(F)F)nc(C)c1Oc1nc(-c2ccnc(C#N)c2)ccc1NS(=O)(=O)C1CC1` [Compound I-203], for which the EC50 at ABCB4 WT is less than 25000 nM; at ABCC6 WT, less than 1000 nM; on ABCA4 P1380L, less than 1000 nM.
As for `Cc1cc(C(F)F)nc(C)c1Oc1nc(-c2ccnc(C#N)c2)ccc1NS(C)(=O)=O` [Compound I-204], the EC50 on ABCB4 WT, at ABCC6 WT and at ABCA4 P1380L was less than 1000 nM each time.
Regarding `Cc1nc(C(F)(F)F)nc(C)c1Oc1nc(-c2cncc(Cl)c2)ccc1NS(C)(=O)=O` [Compound I-205], the EC50 on ABCB4 WT was not below 25000 nM; at ABCC6 WT it was less than 1000 nM; on ABCA4 P1380L, less than 1000 nM.
`COC(=O)c1cncc(-c2ccc(NS(C)(=O)=O)c(Oc3cc(C)n(C)n3)n2)c1` [Compound I-206]: the 50% effective concentration (EC50) on ABCB4 WT is less than 25000 nM; at ABCC6 WT it was 1000 to 10000 nM; at ABCA4 P1380L it was less than 25000 nM.
Turning to `Cc1cc(C2CCC2)nc(C)c1Oc1nc(-c2cncc(C#N)c2)ccc1NS(C)(=O)=O` [Compound I-208], the EC50 on ABCB4 WT, at ABCC6 WT and on ABCA4 P1380L was less than 1000 nM in each case.
Consider `COc1nc(C)cc(C)c1Oc1nc(-c2cncc(C#N)c2)ccc1NS(C)(=O)=O` [Compound I-209], for which the EC50 on ABCB4 WT, on ABCC6 WT and at ABCA4 P1380L was less than 1000 nM in each case.
For the compound `Cc1cc(C)c(Oc2nc(-c3ccnc(C#N)c3)ccc2NS(=O)(=O)C2CC2)c(C)n1` [Compound I-211], the half-maximal effective concentration (EC50) is less than 1000 nM at ABCB4 WT, less than 1000 nM at ABCC6 WT and 10000 to 25000 nM at ABCA4 P1380L.
For the compound `C#Cc1cncc(-c2ccc(NS(C)(=O)=O)c(Oc3c(C)cc(C)nc3C)n2)c1` [Compound I-212], the EC50 on ABCB4 WT, at ABCC6 WT and at ABCA4 P1380L was less than 1000 nM throughout.
With `Cc1cc(C2CC2)nc(C)c1Oc1nc(-c2ccnc(C#N)c2)ccc1NS(C)(=O)=O` [Compound I-213], the EC50 on ABCB4 WT, at ABCC6 WT and on ABCA4 P1380L was less than 1000 nM each time.
`Cc1cc(C)c(Oc2nc(-c3cncc(C4COC4)c3)ccc2NS(C)(=O)=O)c(C)n1` [Compound I-216]: the EC50 on ABCB4 WT is less than 1000 nM; on ABCC6 WT, less than 1000 nM; on ABCA4 P1380L, more than 25000 nM.
In the case of `CCS(=O)(=O)Nc1ccc(-c2cncc(C#N)c2)nc1Oc1c(C)cc(C(F)(F)F)nc1C` [Compound I-217], the EC50 on ABCB4 WT, at ABCC6 WT and at ABCA4 P1380L was less than 1000 nM in each case.
`Cc1cc(C(F)(F)F)nc(C)c1Oc1nc(-c2cncc(C#N)c2)ccc1NS(=O)(=O)C1CC1` [Compound I-218]: the EC50 on ABCB4 WT, at ABCC6 WT and on ABCA4 P1380L was less than 1000 nM throughout.
Take `Cc1cc(C(F)(F)F)nc(C)c1Oc1nc(-c2ccnc(C#N)c2)ccc1NS(C)(=O)=O` [Compound I-219]: the EC50 at ABCB4 WT, at ABCC6 WT and at ABCA4 P1380L was less than 1000 nM throughout.
Regarding `Cc1cc(C)c(Oc2nc(-c3cncc(C(C)(C)O)c3)ccc2NS(C)(=O)=O)c(C)n1` [Compound I-220], the concentration for a half-maximal effect (EC50) was not below 25000 nM at ABCB4 WT, not below 25000 nM on ABCC6 WT and more than 25000 nM on ABCA4 P1380L.
For `Cc1cc(C)c(Oc2nc(-c3cncc(C#N)c3)ccc2N2CCCS2(=O)=O)c(C)n1` [Compound I-221], the half-maximal effective concentration (EC50) on ABCB4 WT is not below 25000 nM; at ABCC6 WT it was 1000 to 10000 nM; at ABCA4 P1380L, 1000 to 10000 nM.
`COc1cc(C)c(Oc2nc(-c3cncc(C#N)c3)ccc2NS(C)(=O)=O)c(C)n1` [Compound I-222]: the EC50 on ABCB4 WT, on ABCC6 WT and at ABCA4 P1380L was less than 1000 nM in each case.
For `Cc1nc(C)c(C(F)(F)F)cc1Oc1nc(-c2cncc(C#N)c2)ccc1NS(C)(=O)=O` [Compound I-225], the EC50 at ABCB4 WT was less than 25000 nM; at ABCC6 WT it was less than 1000 nM; on ABCA4 P1380L it was more than 25000 nM.
As to `Cc1cc(Oc2nc(-c3cncc(C#N)c3)ccc2NS(C)(=O)=O)c(C)nc1C` [Compound I-226], the values for the EC50 at ABCB4 WT, at ABCC6 WT and at ABCA4 P1380L were less than 1000 nM, less than 1000 nM and more than 25000 nM, respectively.
Regarding `Cc1cc(C)c(Oc2nc(-c3cncc(CO)c3)ccc2NS(C)(=O)=O)c(C)n1` [Compound I-227], the results for the concentration giving a half-maximal response (EC50) on ABCB4 WT, on ABCC6 WT and at ABCA4 P1380L were less than 25000 nM, less than 1000 nM and 1000 to 10000 nM, respectively.
With `Cc1cc(C)c(Oc2nc(-c3cncc(C#N)c3)ccc2NS(=O)(=O)C2COC2)c(C)n1` [Compound I-228], the figures for the concentration giving a half-maximal response (EC50) at ABCB4 WT, on ABCC6 WT and at ABCA4 P1380L were less than 25000 nM, less than 1000 nM and less than 1000 nM, respectively.
With `Cc1nc(C)c(C2CC2)cc1Oc1nc(-c2cncc(C#N)c2)ccc1NS(C)(=O)=O` [Compound I-229], the EC50 is less than 25000 nM at ABCB4 WT, 1000 to 10000 nM at ABCC6 WT and 1000 to 10000 nM at ABCA4 P1380L.
For `Cc1cc(C(F)F)nc(C)c1Oc1nc(-c2cncc(C#N)c2)ccc1NS(C)(=O)=O` [Compound I-230], the half-maximal effective concentration (EC50) on ABCB4 WT, at ABCC6 WT and on ABCA4 P1380L was less than 1000 nM in each case.
Regarding `COCc1cncc(-c2ccc(NS(C)(=O)=O)c(Oc3c(C)cc(C)nc3C)n2)c1` [Compound I-231], the results for the 50% effective concentration (EC50) at ABCB4 WT, at ABCC6 WT and at ABCA4 P1380L were 1000 to 10000 nM, less than 1000 nM and 1000 to 10000 nM, respectively.
For the compound `Cc1cc(C)c(Oc2nc(-c3cncc(C4CC4)c3)ccc2NS(C)(=O)=O)c(C)n1` [Compound I-232], the half-maximal effective concentration (EC50) on ABCB4 WT is less than 25000 nM; at ABCC6 WT, less than 1000 nM; at ABCA4 P1380L, less than 25000 nM.
For the compound `Cc1nc(C)c(Oc2nc(-c3cncc(C#N)c3)ccc2NS(C)(=O)=O)c(C)n1` [Compound I-234], the EC50 at ABCB4 WT was 1000 to 10000 nM; at ABCC6 WT, less than 1000 nM; on ABCA4 P1380L, less than 1000 nM.
For the compound `Cc1cc(C2CC2)nc(C)c1Oc1nc(-c2cncc(C#N)c2)ccc1NS(=O)(=O)C1COC1` [Compound I-235], the figures for the half-maximal effective concentration (EC50) at ABCB4 WT, on ABCC6 WT and at ABCA4 P1380L were less than 25000 nM, less than 1000 nM and less than 25000 nM, respectively.
Take `Cc1cc(C2CC2)nc(C)c1Oc1nc(-c2cncc(Cl)c2)ccc1NS(=O)(=O)C1COC1` [Compound I-236]: the half-maximal effective concentration (EC50) is less than 25000 nM at ABCB4 WT, less than 1000 nM on ABCC6 WT and less than 25000 nM on ABCA4 P1380L.
Turning to `Cc1cc(C)c(Oc2nc(-c3cncc(Cl)c3)ccc2NS(=O)(=O)C2COC2)c(C)n1` [Compound I-237], the figures for the concentration giving a half-maximal response (EC50) at ABCB4 WT, on ABCC6 WT and at ABCA4 P1380L were less than 25000 nM, less than 1000 nM and less than 1000 nM, respectively.
